Data published in ChEMBL document CHEMBL3045342, “Quantitative relationship between insecticidal activity and Ca2+ pump stimulation by flubendiamide and its related compounds” (J Pestic Sci, 2009).
≈ marks a conversion by molar mass, not a printed value. Calls of active or inactive are those of the source. No cut-off for these calls is given here.

Columns and labels:
Spodoptera litura = experiment: Insecticidal activity against Spodoptera litura cabbage leaf disk after 4 to 7 days by leaf dipping method; format: functional; settings: foliar
[1] = target: Ryanodien receptor (Spodoptera exigua) (UniProt H9CNL0); experiment: Activation of ryanodine receptor in sixth-instar larvae of Spodoptera litura muscle membrane assessed as induction of Ca2+ pump at 0.1 uM after 30 min in presence of ryanodine
[2] = target: Ryanodien receptor (Spodoptera exigua) (UniProt H9CNL0); experiment: Activation of ryanodine receptor in sixth-instar larvae of Spodoptera litura muscle membrane assessed as induction of Ca2+ pump at 1 uM after 30 min relative to control
[3] = target: Ryanodien receptor (Spodoptera exigua) (UniProt H9CNL0); experiment: Activation of ryanodine receptor in sixth-instar larvae of Spodoptera litura muscle membrane assessed as induction of Ca2+ pump at 0.1 uM after 30 min relative to control
[4] = target: Ryanodien receptor (Spodoptera exigua) (UniProt H9CNL0); experiment: Activation of ryanodine receptor in sixth-instar larvae of Spodoptera litura muscle membrane assessed as induction of Ca2+ pump at 10 uM after 30 min relative to control
[5] = target: Ryanodien receptor (Spodoptera exigua) (UniProt H9CNL0); experiment: Activation of ryanodine receptor in sixth-instar larvae of Spodoptera litura muscle membrane assessed as induction of Ca2+ pump at 1 to 100 uM after 30 min
[6] = target: Ryanodien receptor (Spodoptera exigua) (UniProt H9CNL0); experiment: Activation of ryanodine receptor in sixth-instar larvae of Spodoptera litura muscle membrane assessed as induction of Ca2+ pump at 2 uM after 30 min relative to control
[7] = target: Ryanodien receptor (Spodoptera exigua) (UniProt H9CNL0); experiment: Activation of ryanodine receptor in sixth-instar larvae of Spodoptera litura muscle membrane assessed as induction of Ca2+ pump at 0.4 uM after 30 min relative to control

SMILES | LC50 (Spodoptera litura) [µg/mL] | also measured
Cc1cc(OC(F)(F)F)ccc1NC(=O)c1cccc(I)c1C(=O)NC(C)C | 1 (≈ 1.98 µM) | –
CSCC(C)(C)NC(=O)c1c(C(=O)Nc2ccc(C(F)(C(F)(F)F)C(F)(F)F)cc2C)cc(Cl)c(Cl)c1I | > 10 | –
Cc1cc(Cl)ccc1NC(=O)c1cccc(Br)c1C(=O)NC(C)C | 10 (≈ 24.4 µM) | –
Cc1cc(C(F)(C(F)(F)F)C(F)(F)F)ccc1NC(=O)c1cccc(I)c1C(=O)NC(C)(C)CS(C)(=O)=O [FLUBENDIAMIDE] | 0.03 (≈ 0.044 µM) | Activity [1]: inactive
C/C=C(/C)C(=O)O[C@H]1C(C)=C2[C@H]([C@@H]1OC(=O)CCCCCCC)[C@@](C)(OC(C)=O)C[C@H](OC(=O)CCC)[C@@]1(O)[C@H]2OC(=O)[C@@]1(C)O | – | Activity [2]: 31.7%; Activity [3]: 67.8%; Activity [4]: 31%
Cc1cc(Cl)ccc1NC(=O)c1ccccc1C(=O)NC(C)C | 10 (≈ 30.2 µM) | –
Cc1cc(OC(F)F)ccc1NC(=O)c1cccc(I)c1C(=O)NC(C)C | 1 (≈ 2.05 µM) | –
CC(C)[C@@]1(O)[C@@H](OC(=O)c2cc[nH]c2)[C@@]2(O)[C@]3(C)C[C@@]4(O)O[C@@]5([C@H](O)[C@@H](C)CC[C@]35O)[C@@]2(O)[C@@]41C | – | Activity [5]: Active
CSCC(C)(C)NC(=O)c1c(I)cccc1C(=O)Nc1ccc(C(F)(C(F)(F)F)C(F)(F)F)cc1C | 0.03 (≈ 0.0461 µM) | –
Cc1cc(C(F)(F)C(F)(F)F)ccc1NC(=O)c1cccc(I)c1C(=O)NC(C)C | 0.3 (≈ 0.555 µM) | –
CNc1ccc2oc(C[C@H]3O[C@@]4(CC[C@H]3C)O[C@H]([C@H](C)C(=O)c3ccc[nH]3)[C@H](C)C[C@H]4C)nc2c1C(=O)O | – | Activity [6]: 358%; Activity [7]: 158%
Cc1cc(C(F)(C(F)(F)F)C(F)(F)F)ccc1NC(=O)c1cccc(I)c1C(=O)NC(C)C | 0.1 (≈ 0.169 µM) | –
